This note sets out measurements from ChEMBL document CHEMBL1201862, “PubChem BioAssay data set” (2004).

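Cells were grown in 96-well plates and exposed to each compound for 48 hours at five concentrations; endpoints were interpolated linearly between bracketing concentrations, or set to the highest concentration if not reached. Abbreviation: GI50, concentration required for 50% inhibition of growth.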 The source made the active and inactive calls. No stated cut-off is given here; in the data, active = GI50 up to about 1.1 µM and inactive = higher. A value given as a limit tells only on which side of the number the result lay.

Some test systems named below: OVCAR-4; HOP-62; U-251; SNB-75; 786-0; SK-MEL-5; HCC 2998; SF-295; SF-268; T47D; HCT-15; OVCAR-5; RXF 393; PC-3; SR; EKVX; LOX IMVI; UACC-62; SK-OV-3; HL-60.
Assay in all cases: DTP human tumour cell line panel, 48 h

For `C(=N\c1nc2cc3sc(/N=C/c4ccccc4)nc3cc2s1)/c1ccccc1`, the GI50 with OVCAR-4 was > 89.5 µM (inactive); in the assay on HOP-62, > 68.2 µM (inactive); in the assay on U-251 it was > 94.6 µM (inactive); in the assay on SNB-75, > 100 µM (inactive); in the assay with 786-0, > 100 µM (inactive); in the assay with SK-MEL-5, 25.5 µM (inactive). For the same compound, the GI50 with HCC 2998 is 29.9 µM (inactive); with SF-295 it was > 100 µM (inactive); with SF-268, > 100 µM (inactive); with T47D it was > 67.9 µM (inactive); with HCT-15, 46 µM; with OVCAR-5 it was > 69.2 µM (inactive). Also, the GI50 with RXF 393 is > 100 µM (inactive); in the assay with PC-3, 98.4 µM (inactive); with SR it was 10.6 µM (inactive); in the assay on EKVX, 37.7 µM (inactive); in the assay with LOX IMVI it was 38.9 µM (inactive); in the assay on UACC-62, 72.9 µM (inactive). In the assay with SK-OV-3, the GI50 was > 100 µM (inactive).

In the case of `O=S(=O)(O)c1cc(/N=N/c2cccc3ccccc23)c(O)c2ncccc12`, the GI50 is 46 µM (inactive) with OVCAR-4; > 100 µM (inactive) in the assay with HOP-62; 42 µM (inactive) in the assay with U-251; 60.3 µM (inactive) in the assay with SNB-75; 38.7 µM (inactive) in the assay with 786-0; 31.1 µM (inactive) in the assay on SK-MEL-5. In addition, the GI50 with SF-295 was > 100 µM (inactive); in the assay with T47D, 55.7 µM (inactive); with HCT-15 it was 47.2 µM; in the assay with OVCAR-5 it was 72.8 µM (inactive); with RXF 393, 62.8 µM (inactive); with PC-3 it was 55.6 µM (inactive). Further, the GI50 in the assay on SR was 23.2 µM (inactive); with EKVX, 30.5 µM (inactive); with LOX IMVI it was 60.8 µM (inactive); with HL-60, 37.8 µM (inactive); with UACC-62 it was 36.2 µM (inactive); in the assay on SK-OV-3, > 100 µM (inactive).

Consider `[N-]=[N+]=Nc1cc(=O)[nH]c2ccccc12`, for which the GI50 in the assay on OVCAR-4 was > 100 µM (inactive); with HOP-62, > 100 µM (inactive); in the assay on U-251, > 100 µM (inactive); with SNB-75, 32.3 µM (inactive); with 786-0, > 100 µM (inactive); in the assay on SK-MEL-5, > 100 µM (inactive). The GI50 with SF-295 is > 100 µM (inactive); with SF-268, > 100 µM (inactive); in the assay on T47D, 64.9 µM (inactive); in the assay on OVCAR-5 it was > 100 µM (inactive); in the assay with RXF 393 it was > 100 µM (inactive); in the assay on PC-3, 39.4 µM (inactive). In addition, the GI50 with SR was 41.3 µM (inactive); in the assay on EKVX, 4.98 µM (inactive); in the assay with UACC-62 it was 44.2 µM (inactive); in the assay with SK-OV-3, 85.3 µM (inactive).

As for `COC(=O)[C@@H]1[C@H](O)CC[C@H]2[C@@]1(C)CC[C@@H](C)[C@]2(COC(C)=O)CC(=O)c1ccoc1`, the GI50 with OVCAR-4 is 25.2 µM (inactive); with U-251, > 50 µM (inactive); in the assay on SNB-75 it was > 50 µM (inactive); with 786-0, > 50 µM (inactive); with SK-MEL-5 it was > 50 µM (inactive); in the assay on SF-295, > 50 µM (inactive). For the same compound, the GI50 with SF-268 is > 50 µM (inactive); in the assay on T47D, 28.8 µM (inactive); in the assay on HCT-15, > 50 µM; in the assay on OVCAR-5, > 50 µM (inactive); with RXF 393 it was > 50 µM (inactive); in the assay on PC-3, > 50 µM (inactive). Besides, the GI50 in the assay with SR is > 50 µM (inactive); with EKVX it was > 50 µM (inactive); in the assay on LOX IMVI, > 50 µM (inactive); in the assay on HL-60, 17 µM (inactive); in the assay with UACC-62 it was 20.9 µM (inactive); with SK-OV-3, > 50 µM (inactive).

As to `COc1ccc2[nH]c3c(c2c1)COc1ccccc1C3=O`, the GI50 is > 100 µM (inactive) with OVCAR-4; > 100 µM (inactive) in the assay with HOP-62; > 100 µM (inactive) in the assay on U-251; 18.6 µM (inactive) in the assay on SNB-75; > 100 µM (inactive) in the assay on 786-0; > 100 µM (inactive) in the assay on SK-MEL-5. Moreover, the GI50 is > 100 µM (inactive) with HCC 2998; > 100 µM (inactive) in the assay on SF-295; > 100 µM (inactive) in the assay on SF-268; 44.4 µM (inactive) in the assay on T47D; > 100 µM in the assay with HCT-15; > 100 µM (inactive) in the assay on OVCAR-5. Moreover, the GI50 in the assay on PC-3, in the assay on SR, with EKVX, in the assay on LOX IMVI, with HL-60 and with UACC-62 was > 100 µM (inactive) throughout. Also, in the assay on SK-OV-3, the GI50 was > 100 µM (inactive).

With `CCN(CC)C(=S)SS(=O)(=O)c1ccccc1C(=O)O`, the GI50 in the assay on OVCAR-4 is > 100 µM (inactive); with HOP-62, > 100 µM (inactive); with U-251, 99.8 µM (inactive); in the assay with SNB-75 it was > 89.1 µM (inactive); with 786-0 it was > 100 µM (inactive); in the assay on SK-MEL-5, > 60.7 µM (inactive). The GI50 in the assay on HCC 2998 was > 100 µM (inactive); in the assay with SF-295 it was > 88.5 µM (inactive); in the assay with SF-268, 98.2 µM (inactive); in the assay with T47D, > 36 µM (inactive); in the assay on HCT-15, > 100 µM; in the assay on OVCAR-5, > 100 µM (inactive). Also, the GI50 in the assay with RXF 393 is > 70.3 µM (inactive); in the assay with PC-3 it was > 100 µM (inactive); in the assay on SR, 3.6 µM (inactive); with EKVX, > 100 µM (inactive); in the assay with LOX IMVI, > 100 µM (inactive); with UACC-62, 66.4 µM (inactive). Moreover, the GI50 with SK-OV-3 is > 100 µM (inactive).

For `CC(C)(C)[Si](C)(C)OC1/C(=C/C#N)C(n2ccc(=O)[nH]c2=O)OC1CO` (stereo not drawn), the GI50 with OVCAR-4, in the assay on HOP-62, with U-251, with 786-0, with SK-MEL-5 and in the assay on SF-295 was > 100 µM (inactive) each time. Moreover, the GI50 was > 100 µM (inactive) with SF-268; > 100 µM (inactive) in the assay with T47D; > 100 µM (inactive) in the assay with OVCAR-5; > 100 µM (inactive) with RXF 393; > 100 µM (inactive) with PC-3; 42.1 µM (inactive) with SR. In addition, the GI50 in the assay with UACC-62 and in the assay on SK-OV-3 was > 100 µM (inactive) throughout.

In the case of `COC1CC2C=CC3C4OC2(/C(C)=C/C(C)C(C(C)O)OC1=O)C3C(O)C(C)C4OC(=O)c1ccc[nH]1` (stereo not drawn), the GI50 with OVCAR-4 was 74 µM (inactive); in the assay with HOP-62 it was > 100 µM (inactive); in the assay on U-251, 96.2 µM (inactive); with 786-0, 94.8 µM (inactive); in the assay on SK-MEL-5 it was 38.2 µM (inactive); in the assay with HCC 2998 it was 74.6 µM (inactive). The GI50 in the assay with SF-295 is 30.9 µM (inactive); in the assay on SF-268, > 100 µM (inactive); in the assay with T47D it was > 100 µM (inactive); with HCT-15, 92.5 µM; in the assay with OVCAR-5 it was > 100 µM (inactive); with PC-3, 46.6 µM (inactive). Besides, the GI50 was 26.5 µM (inactive) with SR; 63.4 µM (inactive) with EKVX; 64 µM (inactive) in the assay on LOX IMVI; 16.6 µM (inactive) in the assay on HL-60; > 100 µM (inactive) in the assay with UACC-62.

On to `COC(=O)/C(=N\NC(=S)NN)C(C(=O)OC)C(=O)C(=O)Nc1cccc(C(F)(F)F)c1` (stereo not drawn), for which the GI50 in the assay on OVCAR-4, in the assay with HOP-62, in the assay with U-251, in the assay with SNB-75, in the assay with 786-0 and in the assay with SK-MEL-5 was > 100 µM (inactive) each time. The GI50 is > 100 µM (inactive) with HCC 2998; > 100 µM (inactive) in the assay on SF-295; > 100 µM (inactive) in the assay with SF-268; > 100 µM (inactive) in the assay with T47D; > 100 µM in the assay on HCT-15; 79.1 µM (inactive) with OVCAR-5. Besides, the GI50 with RXF 393, in the assay on PC-3, in the assay on EKVX, in the assay on LOX IMVI, with HL-60 and in the assay on UACC-62 was > 100 µM (inactive) each time. Moreover, in the assay on SK-OV-3, the GI50 was > 100 µM (inactive).

Consider `O=C(O)c1cc(-c2ccc3cc(O)c(O)cc3c2)ccc1O`, for which the GI50 is > 12.5 µM (inactive) with HOP-62; > 12.5 µM (inactive) in the assay on U-251; 4.94 µM (inactive) in the assay with SNB-75; > 12.5 µM (inactive) with 786-0; > 12.5 µM (inactive) in the assay with SK-MEL-5; > 12.5 µM (inactive) in the assay on SF-295. Besides, the GI50 in the assay on SF-268 is > 12.5 µM (inactive); in the assay on T47D, > 12.5 µM (inactive); in the assay on HCT-15 it was > 12.5 µM; in the assay with OVCAR-5, > 12.5 µM (inactive); in the assay on PC-3 it was > 12.5 µM (inactive); in the assay on SR, > 12.5 µM (inactive). Further, the GI50 in the assay on HL-60, in the assay with UACC-62 and with SK-OV-3 was > 12.5 µM (inactive) throughout.

As to `O=C(Nc1ccc2ccccc2c1)Nn1cnnc1`, the GI50 in the assay on OVCAR-4, with HOP-62, with U-251, in the assay with SNB-75, with 786-0 and in the assay with SK-MEL-5 was > 100 µM (inactive) in each case. Also, the GI50 in the assay with HCC 2998 was > 100 µM (inactive); with SF-295, > 100 µM (inactive); with SF-268, > 100 µM (inactive); with T47D, > 100 µM (inactive); in the assay on HCT-15, > 100 µM; in the assay with OVCAR-5, > 100 µM (inactive). Moreover, the GI50 in the assay on PC-3, in the assay with SR, in the assay on EKVX, in the assay with LOX IMVI, with HL-60 and with UACC-62 was > 100 µM (inactive) throughout. Moreover, in the assay on SK-OV-3, the GI50 is > 100 µM (inactive).

As a reminder, the GI50 is the concentration that inhibits growth by half.
